According to patent publication US12486267B2, “Imidazo[1,2-A]pyridine and [1,2,4]triazolo[1,5-A]pyridine derivatives as TLR9 inhibitors for the treatment of fibrosis” (BRISTOL-MYERS SQUIBB COMPANY, priority 2020, dated 2025):

How the values were obtained:
Assay type in all cases: cell-based
human TLR8 = target: T1, human TLR8 (Homo sapiens, UniProt Q9NR97); experiment: TLR8 inhibition reporter assay (HEK-Blue cells, SEAP reporter); conditions: HEK-Blue cells overexpressing human TLR8; stimulated with R848 15.9 μM; 22 hour incubation; SEAP readout
T1 sequence (Q9NR97 27-1041): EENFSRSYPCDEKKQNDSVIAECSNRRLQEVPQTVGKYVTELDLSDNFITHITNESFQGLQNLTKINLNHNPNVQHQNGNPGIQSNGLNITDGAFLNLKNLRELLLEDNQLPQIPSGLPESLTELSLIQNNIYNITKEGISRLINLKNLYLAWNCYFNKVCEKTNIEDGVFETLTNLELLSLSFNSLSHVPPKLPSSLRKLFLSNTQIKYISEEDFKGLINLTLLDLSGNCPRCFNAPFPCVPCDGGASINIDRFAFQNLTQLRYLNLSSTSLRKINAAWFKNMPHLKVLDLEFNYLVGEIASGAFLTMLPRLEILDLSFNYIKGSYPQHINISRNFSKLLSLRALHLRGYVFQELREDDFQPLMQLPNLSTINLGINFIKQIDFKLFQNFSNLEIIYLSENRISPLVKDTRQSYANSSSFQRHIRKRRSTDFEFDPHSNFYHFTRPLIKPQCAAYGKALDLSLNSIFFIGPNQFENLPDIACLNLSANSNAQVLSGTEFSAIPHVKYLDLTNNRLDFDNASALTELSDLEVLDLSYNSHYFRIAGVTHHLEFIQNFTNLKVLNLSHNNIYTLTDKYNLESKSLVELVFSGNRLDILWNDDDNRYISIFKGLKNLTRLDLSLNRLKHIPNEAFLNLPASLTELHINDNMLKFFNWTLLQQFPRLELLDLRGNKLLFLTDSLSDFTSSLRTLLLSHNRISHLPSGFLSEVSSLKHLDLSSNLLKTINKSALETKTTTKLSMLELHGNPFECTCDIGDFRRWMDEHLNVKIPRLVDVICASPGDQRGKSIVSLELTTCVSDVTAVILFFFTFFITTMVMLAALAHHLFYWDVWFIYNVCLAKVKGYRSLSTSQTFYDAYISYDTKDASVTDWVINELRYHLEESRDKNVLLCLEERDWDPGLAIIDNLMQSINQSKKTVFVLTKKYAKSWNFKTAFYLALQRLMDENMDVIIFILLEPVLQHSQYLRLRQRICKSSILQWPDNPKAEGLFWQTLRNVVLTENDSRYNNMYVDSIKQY
Summary of the method: (§1)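 HEK-Blue cells with NF-κB/AP-1-driven SEAP pre-treated 30 min with compound (0.05 nM–50 μM), then stimulated with gardiquimod 7.5 μM (TLR7), R848 15.9 μM (TLR8) or ODN2006 5 nM (TLR9). SEAP detected after 22 h at 37 °C; percent inhibition relative to agonist-plus-DMSO and known-inhibitor wells.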

human TLR9 = target: T2, human TLR9 (Homo sapiens, UniProt Q9NR96); experiment: TLR9 inhibition reporter assay (HEK-Blue cells, SEAP reporter); conditions: HEK-Blue cells overexpressing human TLR9; stimulated with ODN2006 5 nM; 22 hour incubation; SEAP readout
T2 sequence (Q9NR96 26-1032): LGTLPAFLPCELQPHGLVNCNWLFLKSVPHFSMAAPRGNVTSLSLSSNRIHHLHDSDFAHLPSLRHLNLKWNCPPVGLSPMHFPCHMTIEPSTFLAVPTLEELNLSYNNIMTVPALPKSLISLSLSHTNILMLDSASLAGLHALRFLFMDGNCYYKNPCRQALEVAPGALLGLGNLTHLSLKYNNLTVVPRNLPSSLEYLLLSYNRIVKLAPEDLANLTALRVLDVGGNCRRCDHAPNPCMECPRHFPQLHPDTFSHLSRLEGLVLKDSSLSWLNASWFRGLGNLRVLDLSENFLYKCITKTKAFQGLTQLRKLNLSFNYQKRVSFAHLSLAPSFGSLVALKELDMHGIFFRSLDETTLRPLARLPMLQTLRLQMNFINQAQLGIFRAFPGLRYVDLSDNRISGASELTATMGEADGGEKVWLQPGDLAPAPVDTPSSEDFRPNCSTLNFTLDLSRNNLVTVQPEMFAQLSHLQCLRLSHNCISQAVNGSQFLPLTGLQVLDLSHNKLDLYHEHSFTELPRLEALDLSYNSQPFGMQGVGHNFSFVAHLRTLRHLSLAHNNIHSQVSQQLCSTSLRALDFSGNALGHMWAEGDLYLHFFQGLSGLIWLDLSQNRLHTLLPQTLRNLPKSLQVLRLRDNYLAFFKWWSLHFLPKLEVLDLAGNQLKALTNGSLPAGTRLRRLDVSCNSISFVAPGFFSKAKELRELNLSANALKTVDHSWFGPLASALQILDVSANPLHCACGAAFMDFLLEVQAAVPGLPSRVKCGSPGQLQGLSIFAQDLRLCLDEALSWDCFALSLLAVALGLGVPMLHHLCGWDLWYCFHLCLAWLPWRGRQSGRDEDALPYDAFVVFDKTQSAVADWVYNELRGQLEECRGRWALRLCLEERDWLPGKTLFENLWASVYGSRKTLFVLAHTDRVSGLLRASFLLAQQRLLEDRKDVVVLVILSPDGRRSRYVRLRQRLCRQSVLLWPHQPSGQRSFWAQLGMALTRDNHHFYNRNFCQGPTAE
Summary of the method: as §1

human TLR7 = target: T3, human TLR7 (Homo sapiens, UniProt Q9NYK1); experiment: TLR7 inhibition reporter assay (HEK-Blue cells, SEAP reporter); conditions: HEK-Blue cells overexpressing human TLR7; stimulated with gardiquimod 7.5 μM; 22 hour incubation; SEAP readout
T3 sequence (Q9NYK1 27-1049): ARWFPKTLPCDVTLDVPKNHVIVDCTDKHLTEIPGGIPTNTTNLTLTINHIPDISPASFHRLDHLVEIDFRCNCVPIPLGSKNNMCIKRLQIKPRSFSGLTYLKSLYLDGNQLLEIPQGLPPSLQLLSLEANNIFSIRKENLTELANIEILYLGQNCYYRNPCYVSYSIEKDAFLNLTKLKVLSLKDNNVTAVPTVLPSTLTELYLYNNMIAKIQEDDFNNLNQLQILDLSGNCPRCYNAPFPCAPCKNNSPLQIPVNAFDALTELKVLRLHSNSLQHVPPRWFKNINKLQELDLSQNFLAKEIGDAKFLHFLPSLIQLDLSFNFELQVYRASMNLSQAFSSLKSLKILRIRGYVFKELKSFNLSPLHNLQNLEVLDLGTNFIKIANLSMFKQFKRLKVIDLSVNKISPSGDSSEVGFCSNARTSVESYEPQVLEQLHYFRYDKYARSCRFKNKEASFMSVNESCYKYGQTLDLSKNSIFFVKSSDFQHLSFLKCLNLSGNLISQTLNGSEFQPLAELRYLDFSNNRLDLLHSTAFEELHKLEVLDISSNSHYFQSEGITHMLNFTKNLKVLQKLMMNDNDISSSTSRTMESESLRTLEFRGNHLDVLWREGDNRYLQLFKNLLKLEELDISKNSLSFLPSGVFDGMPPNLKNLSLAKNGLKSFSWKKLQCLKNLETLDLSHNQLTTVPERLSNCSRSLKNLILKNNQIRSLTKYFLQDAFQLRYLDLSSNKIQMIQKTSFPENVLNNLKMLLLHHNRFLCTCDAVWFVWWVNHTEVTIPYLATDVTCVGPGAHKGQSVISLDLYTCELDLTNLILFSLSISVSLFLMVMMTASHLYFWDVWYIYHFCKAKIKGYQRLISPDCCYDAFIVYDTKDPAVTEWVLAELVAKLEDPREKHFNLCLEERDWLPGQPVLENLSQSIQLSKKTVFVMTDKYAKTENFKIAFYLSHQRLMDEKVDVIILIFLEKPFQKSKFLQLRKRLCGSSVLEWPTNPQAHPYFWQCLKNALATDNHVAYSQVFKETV
Summary of the method: as §1

| Structure (SMILES) | IC50 (human TLR8) [µM] | IC50 (human TLR9) [µM] | IC50 (human TLR7) [µM] |
| --- | --- | --- | --- |
| COc1ccc(-c2cn3cc(C4C[C@H]5CC[C@@H](C4)N5C4CCN(C5CC5)CC4)cc(C)c3n2)cc1OC (mixture of isomers) [Example 24, 6-(8-(1-cyclopropylpiperidin-4-yl)-8-azabicyclo[3.2.1]octan-3-yl)-2-(3,4-dimethoxyphenyl)-8-methylimidazo[1,2-a]pyridine] | > 50 | 0.102 | 2.9 |
| COc1ccc(-c2cn3cc(C4CCN(C5CCN(C(C)C)CC5)CC4)ccc3n2)cc1OC [Example 11, 2-(3,4-dimethoxyphenyl)-6-(1′-isopropyl-[1,4′-bipiperidin]-4-yl)imidazo[1,2-a]pyridine] | > 50 | 0.077 | 5.6 |
| COc1ccc(-c2cn3cc(C4CC5CCC(C4)N5C4CCN(C5CC5)CC4)cc(C)c3n2)cc1OC (single isomer, unassigned) [Example 25, 6-(8-(1-cyclopropylpiperidin-4-yl)-8-azabicyclo[3.2.1]octan-3-yl)-2-(3,4-dimethoxyphenyl)-8-methylimidazo[1,2-a]pyridine] | 20 | 0.016 | 3.5 |
| Cc1cc(C2CCN(C3CC4CCC(C3)N4CC3CC3)CC2)cn2cc(-c3ccc(S(C)(=O)=O)cc3)nc12 (single isomer, unassigned) [Example 87, 6-(1-(8-(cyclopropylmethyl)-8-azabicyclo[3.2.1]octan-3-yl)piperidin-4-yl)-8-methyl-2-(4-(methylsulfonyl)phenyl) imidazo[1,2-a]pyridine] | > 25 | 0.028 | 4.4 |
| COc1ccc(-c2cn3cc(C4CCN(C5CC6CCC(C5)N6CC5CC5)CC4)cc(C)c3n2)cc1OC (single isomer, unassigned) [Example 21, 6-(1-(8-(cyclopropylmethyl)-8-azabicyclo[3.2.1]octan-3-yl)piperidin-4-yl)-2-(3,4-dimethoxyphenyl)-8-methylimidazo[1,2-a]pyridine] | > 50 | 0.126 | 3 |
| COc1ccc(-c2cn3c(n2)CC[C@@H](C2CCN(C4CC5CCC(C4)N5C(C)C)CC2)C3)cc1OC (single isomer, unassigned) [Example 137] | > 25 | 0.046 | 3 |

Next, values leading:

| IC50 (human TLR8) [µM] | IC50 (human TLR9) [µM] | IC50 (human TLR7) [µM] | Structure (SMILES) |
| --- | --- | --- | --- |
| > 50 | 0.357 | > 50 | COc1ccc(-c2nc3n(n2)CC(c2ccc(N4CC5CCC(C4)N5C(C)C)cc2)CC3C)cc1OC (stereo not drawn) [Example 152, 2-(3,4-dimethoxyphenyl)-6-(4-(8-isopropyl-3,8-diazabicyclo[3.2.1]octan-3-yl)phenyl)-8-methyl-5,6,7,8-tetrahydro-[1,2,4]triazolo[1,5-a]pyridine] |
| > 50 | 0.062 | 14.3 | Cc1cc(C2CCN(C3CCN(C(C)C)CC3)CC2)cc2nc(-c3ccc(S(C)(=O)=O)cc3)cn12 [Example 66, 7-(1′-isopropyl-[1,4′-bipiperidin]-4-yl)-5-methyl-2-(4-(methylsulfonyl)phenyl) imidazo[1,2-a]pyridine] |
| > 50 | 0.3 | 4 | CC(C)N1CCC(N2CCC(c3ccn4cc(-c5ccc(S(C)(=O)=O)cc5)nc4c3F)CC2)CC1 [Example 132, 8-fluoro-7-(1′-isopropyl-[1,4′-bipiperidin]-4-yl)-2-(4-(methylsulfonyl)phenyl) imidazo[1,2-a]pyridine] |
| > 25 | 0.064 | 3.6 | COc1ccc(-c2cn3c(n2)CC[C@@H](C2CCN(C4CC5CCC(C4)N5CC(C)C)CC2)C3)cc1OC (single isomer, unassigned) [Example 77] |
| > 50 | 0.0015 | 0.83 | COc1ccc(-c2cn3c(n2)CCC(C2CCN(C4CC5(C4)CN(CC(C)C)C5)CC2)C3)cc1OC (single isomer, unassigned) [Example 54, 2-(3,4-dimethoxyphenyl)-6-(1-(2-isobutyl-2-azaspiro[3.3]heptan-6-yl)piperidin-4-yl)-5,6,7,8-tetrahydroimidazo[1,2-a]pyridine] |
| > 50 | 0.129 | 5.2 | COc1ccc(-c2cn3cc(C4CCN(C5CCN(C6CC6)CC5)CC4)ccc3n2)cc1OC [Example 10, 6-(1′-cyclopropyl-[1,4′-bipiperidin]-4-yl)-2-(3,4-dimethoxyphenyl)imidazo[1,2-a]pyridine] |
| > 50 | 0.04 | 5.3 | COc1ccc(-c2cn3c(n2)CCC(C2CCN(C4CC5(C4)CN(C4CCC4)C5)CC2)C3)cc1OC (single isomer, unassigned) [Example 50, 6-(1-(2-cyclobutyl-2-azaspiro[3.3]heptan-6-yl)piperidin-4-yl)-2-(3,4-dimethoxyphenyl)-5,6,7,8-tetrahydroimidazo[1,2-a]pyridine] |
